The source made the active and inactive calls. The rule behind the calls is not given here.
test system: not listed separately; test: Stability in mouse liver microsomes assessed as parent compound remaining measured after 30 mins; format: ADME, Microsome; conditions: liver microsomes, read-out: Stabilty

Compound	remaining at 0.5 h [%]
O=C(NO)c1coc(CCCN2CCC(CN[C@H]3C[C@@H]3c3ccccc3)CC2)n1 (racemic)	76
O=C(NO)c1ccc(CCCN2CCC(CN[C@H]3C[C@@H]3c3ccc(F)cc3)CC2)cc1 (racemic)	66
O=C(NO)c1ccc(CCCN2CCC(CN[C@H]3C[C@@H]3c3ccc(-c4ccc(Cl)cc4)cc3)CC2)cc1 (racemic)	81
O=C(NO)c1ccc(CCCN2CCC(CN[C@H]3C[C@@H]3c3ccc(-c4ccc(F)cc4)cc3)CC2)cc1 (racemic)	75
O=C(NO)c1ccc(CCCN2CCC(CN[C@H]3C[C@@H]3c3ccc(C(=O)N4CCCCC4)cc3)CC2)cc1 (racemic)	72
O=C(NO)c1ccc(CN2CCC(CN[C@H]3C[C@@H]3c3ccccc3)CC2)cc1 (racemic)	53
O=C(NO)c1ccc(CCCN2CCC(CN[C@H]3C[C@@H]3c3ccc(-c4ccc(C(F)(F)F)nc4)cc3)CC2)cc1 (racemic)	85
Cn1ccc(-c2ccc([C@H]3C[C@@H]3NCC3CCN(CCCc4ccc(C(=O)NO)cc4)CC3)cc2)cc1=O (racemic)	72
O=C(NO)c1cnc(CCCN2CCC(CN[C@H]3C[C@@H]3c3ccccc3)CC2)s1 (racemic)	87
O=C(O)c1ccc(CCCN2CCC(CN[C@H]3C[C@@H]3c3ccccc3)CC2)cc1 (racemic)	80
O=C(CCCCCCNC(=O)c1cnc(N(c2ccccc2)c2ccccc2)nc1)NO [RICOLINOSTAT]	77

test system: not listed separately; test: Stability in human liver microsomes assessed as parent compound remaining measured after 30 mins; format: ADME, Microsome; conditions: liver microsomes, read-out: Stabilty

Compound	remaining at 0.5 h [%]
O=C(NO)c1coc(CCCN2CCC(CN[C@H]3C[C@@H]3c3ccccc3)CC2)n1 (racemic)	78
O=C(NO)c1ccc(CCCN2CCC(CN[C@H]3C[C@@H]3c3ccc(F)cc3)CC2)cc1 (racemic)	54
O=C(NO)c1ccc(CCCN2CCC(CN[C@H]3C[C@@H]3c3ccc(-c4ccc(Cl)cc4)cc3)CC2)cc1 (racemic)	77
O=C(NO)c1ccc(CCCN2CCC(CN[C@H]3C[C@@H]3c3ccc(-c4ccc(F)cc4)cc3)CC2)cc1 (racemic)	92
O=C(NO)c1ccc(CCCN2CCC(CN[C@H]3C[C@@H]3c3ccc(C(=O)N4CCCCC4)cc3)CC2)cc1 (racemic)	65
O=C(NO)c1ccc(CN2CCC(CN[C@H]3C[C@@H]3c3ccccc3)CC2)cc1 (racemic)	63
O=C(NO)c1ccc(CCCN2CCC(CN[C@H]3C[C@@H]3c3ccc(-c4ccc(C(F)(F)F)nc4)cc3)CC2)cc1 (racemic)	79
Cn1ccc(-c2ccc([C@H]3C[C@@H]3NCC3CCN(CCCc4ccc(C(=O)NO)cc4)CC3)cc2)cc1=O (racemic)	73
O=C(NO)c1cnc(CCCN2CCC(CN[C@H]3C[C@@H]3c3ccccc3)CC2)s1 (racemic)	90
O=C(O)c1ccc(CCCN2CCC(CN[C@H]3C[C@@H]3c3ccccc3)CC2)cc1 (racemic)	63
O=C(CCCCCCNC(=O)c1cnc(N(c2ccccc2)c2ccccc2)nc1)NO [RICOLINOSTAT]	93

molecular target: T1, Protein deacetylase HDAC6 (Homo sapiens) (UniProt Q9UBN7); test: Inhibition of HDAC6 in human MM1.S cells assessed as modulation of c-Myc mRNA expression at 0.5 uM after 6 to 24 hrs by qRT-PCR analysis; format: cell-based; conditions: time lower 6.0 hrs, time upper […]
T1 sequence (whole entry): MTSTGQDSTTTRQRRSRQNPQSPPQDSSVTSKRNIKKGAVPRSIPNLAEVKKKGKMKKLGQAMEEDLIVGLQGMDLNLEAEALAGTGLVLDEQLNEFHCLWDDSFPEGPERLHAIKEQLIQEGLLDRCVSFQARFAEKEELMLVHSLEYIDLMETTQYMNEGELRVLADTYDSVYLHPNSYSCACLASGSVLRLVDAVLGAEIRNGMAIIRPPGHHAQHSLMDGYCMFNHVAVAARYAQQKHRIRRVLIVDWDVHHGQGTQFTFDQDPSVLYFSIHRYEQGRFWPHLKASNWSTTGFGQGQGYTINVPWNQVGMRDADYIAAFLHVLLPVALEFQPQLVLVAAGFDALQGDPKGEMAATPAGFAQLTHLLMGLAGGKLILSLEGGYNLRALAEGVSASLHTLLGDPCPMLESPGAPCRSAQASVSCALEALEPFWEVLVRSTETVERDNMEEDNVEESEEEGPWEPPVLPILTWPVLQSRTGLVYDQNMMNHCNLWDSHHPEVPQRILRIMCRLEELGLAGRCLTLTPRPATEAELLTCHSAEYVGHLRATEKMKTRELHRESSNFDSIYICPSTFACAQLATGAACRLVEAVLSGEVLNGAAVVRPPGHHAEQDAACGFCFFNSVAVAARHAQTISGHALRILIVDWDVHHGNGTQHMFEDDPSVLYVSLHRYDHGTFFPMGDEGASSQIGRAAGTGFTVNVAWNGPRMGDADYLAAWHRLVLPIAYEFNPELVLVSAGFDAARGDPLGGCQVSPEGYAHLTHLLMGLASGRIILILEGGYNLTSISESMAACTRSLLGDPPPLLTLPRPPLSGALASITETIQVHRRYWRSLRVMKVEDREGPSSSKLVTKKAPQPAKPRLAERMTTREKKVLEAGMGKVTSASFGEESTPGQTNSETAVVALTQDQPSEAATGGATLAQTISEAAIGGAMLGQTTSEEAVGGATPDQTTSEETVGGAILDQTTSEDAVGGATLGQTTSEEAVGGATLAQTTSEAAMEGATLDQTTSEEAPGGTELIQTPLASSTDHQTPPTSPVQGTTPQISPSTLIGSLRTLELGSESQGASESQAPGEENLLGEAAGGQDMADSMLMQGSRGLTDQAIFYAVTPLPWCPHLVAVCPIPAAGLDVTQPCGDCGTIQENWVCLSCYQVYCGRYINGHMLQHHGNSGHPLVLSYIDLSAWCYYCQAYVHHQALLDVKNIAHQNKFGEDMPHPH

Compound	inhibition
O=C(NO)c1ccc(CCCN2CCC(CN[C@H]3C[C@@H]3c3ccccc3)CC2)cc1 (racemic)	Active

molecular target: T2, Protein deacetylase HDAC6 (Homo sapiens, UniProt Q9UBN7); test: Inhibition of human HDAC6 (unknown origin) using RHKKAc as substrate by fluorescence method; conditions: read-out: IC50
T2 sequence (Q9UBN7 whole entry): T1 sequence (whole entry)

Compound	IC50 [nM]
O=C(NO)c1coc(CCCN2CCC(CN[C@H]3C[C@@H]3c3ccccc3)CC2)n1 (racemic)	> 10000
O=C(NO)c1ccc(CCCN2CCC(CN[C@H]3C[C@@H]3c3ccc(F)cc3)CC2)cc1 (racemic)	51
O=C(NO)c1ccc(CCCN2CCC(CN[C@H]3C[C@@H]3c3ccc(-c4ccc(Cl)cc4)cc3)CC2)cc1 (racemic)	19
O=C(NO)c1ccc(CCCN2CCC(CN[C@H]3C[C@@H]3c3ccc(-c4ccc(F)cc4)cc3)CC2)cc1 (racemic)	59
O=C(NO)c1ccc(CCCN2CCC(CN[C@H]3C[C@@H]3c3ccc(-c4ccc(C(F)(F)F)nc4)cc3)CC2)cc1 (racemic)	100
Cn1ccc(-c2ccc([C@H]3C[C@@H]3NCC3CCN(CCCc4ccc(C(=O)NO)cc4)CC3)cc2)cc1=O (racemic)	46
O=C(NO)c1cnc(CCCN2CCC(CN[C@H]3C[C@@H]3c3ccccc3)CC2)s1 (racemic)	517
O=C(O)c1ccc(CCCN2CCC(CN[C@H]3C[C@@H]3c3ccccc3)CC2)cc1 (racemic)	> 10000

test system: MM1.S; test: Antitumour activity against human MM1.S cells xenografted in SCID mouse assessed as tumour growth inhibition at 25 mg/kg, po for 12 days relative to control; format: functional; conditions: 288 h, time 12 day, read-out: TGI

Compound	inhibition in vivo at 25 mg/kg [%]
O=C(O)c1ccc(CN2CCC(CN[C@@H]3C[C@H]3c3ccccc3)CC2)cc1 [GSK2879552]	40

molecular target: T3, Lysine-specific histone demethylase 1A (Homo sapiens, UniProt O60341); test: Inhibition of LSD1 (unknown origin); conditions: not given

Compound	IC50
O=C(CCCCCCNC(=O)c1cnc(N(c2ccccc2)c2ccccc2)nc1)NO [RICOLINOSTAT]	Not Active

same assay, conditions: read-out: IC50

Compound	IC50 [nM]
CN(CC1CCN(CCCc2ccc(C(=O)NO)cc2)CC1)[C@H]1C[C@@H]1c1ccccc1 (racemic)	465
O=C(NO)c1coc(CCCN2CCC(CN[C@H]3C[C@@H]3c3ccccc3)CC2)n1 (racemic)	26
O=C(NO)c1ccc(CCCN2CCC(CN[C@H]3C[C@@H]3c3ccc(F)cc3)CC2)cc1 (racemic)	6
O=C(NO)c1ccc(CCCN2CCC(CN[C@H]3C[C@@H]3c3ccc(-c4ccc(Cl)cc4)cc3)CC2)cc1 (racemic)	2
O=C(NO)c1ccc(CCCN2CCC(CN[C@H]3C[C@@H]3c3ccc(-c4ccc(F)cc4)cc3)CC2)cc1 (racemic)	821
O=C(NO)c1ccc(CCCN2CCC(CN[C@H]3C[C@@H]3c3ccc(C(=O)N4CCCCC4)cc3)CC2)cc1 (racemic)	23
O=C(NO)c1ccc(CCCN2CCC(CN[C@H]3C[C@@H]3c3ccc(-c4ccc(C(F)(F)F)nc4)cc3)CC2)cc1 (racemic)	19
Cn1ccc(-c2ccc([C@H]3C[C@@H]3NCC3CCN(CCCc4ccc(C(=O)NO)cc4)CC3)cc2)cc1=O (racemic)	21
O=C(NO)c1cnc(CCCN2CCC(CN[C@H]3C[C@@H]3c3ccccc3)CC2)s1 (racemic)	22

molecular target: T1, Protein deacetylase HDAC6 (Homo sapiens); test: Inhibition of HDAC6 in human MM1.S cells assessed as modulation alpha-tubulin acetylation at 100 to 500 nM after 1 to 3 hrs by Western blot analysis; format: cell-based; conditions: dose 100-500 nM, time 1-3 hrs

Compound	inhibition
O=C(NO)c1ccc(CCCN2CCC(CN[C@H]3C[C@@H]3c3ccccc3)CC2)cc1 (racemic)	Active

test system: MM1.S; test: Antitumour activity against human MM1.S cells xenografted in SCID mouse assessed as tumour growth inhibition at 50 mg/kg, […] for 12 days relative to control; format: functional; conditions: 288 h, time 12 day, read-out: TGI

Compound	inhibition in vivo at 50 mg/kg [%]
O=C(CCCCCCNC(=O)c1cnc(N(c2ccccc2)c2ccccc2)nc1)NO [RICOLINOSTAT]	36

molecular target: T1, Protein deacetylase HDAC6 (Homo sapiens); test: Inhibition of HDAC6 in human MM1.S cells assessed as modulation of p21 mRNA expression at 0.5 uM after 6 to 24 hrs by qRT-PCR analysis; format: cell-based; conditions: time lower 6.0 hrs, time upper […]

Compound	inhibition
O=C(NO)c1ccc(CCCN2CCC(CN[C@H]3C[C@@H]3c3ccccc3)CC2)cc1 (racemic)	Active

molecular target: Histone deacetylase 1 (Homo sapiens) (UniProt Q13547); test: Inhibition of human HDAC1 at 1uM using RHKKAc as substrate by fluorescence method relative to control; conditions: not given
Sequence (Q13547 whole entry): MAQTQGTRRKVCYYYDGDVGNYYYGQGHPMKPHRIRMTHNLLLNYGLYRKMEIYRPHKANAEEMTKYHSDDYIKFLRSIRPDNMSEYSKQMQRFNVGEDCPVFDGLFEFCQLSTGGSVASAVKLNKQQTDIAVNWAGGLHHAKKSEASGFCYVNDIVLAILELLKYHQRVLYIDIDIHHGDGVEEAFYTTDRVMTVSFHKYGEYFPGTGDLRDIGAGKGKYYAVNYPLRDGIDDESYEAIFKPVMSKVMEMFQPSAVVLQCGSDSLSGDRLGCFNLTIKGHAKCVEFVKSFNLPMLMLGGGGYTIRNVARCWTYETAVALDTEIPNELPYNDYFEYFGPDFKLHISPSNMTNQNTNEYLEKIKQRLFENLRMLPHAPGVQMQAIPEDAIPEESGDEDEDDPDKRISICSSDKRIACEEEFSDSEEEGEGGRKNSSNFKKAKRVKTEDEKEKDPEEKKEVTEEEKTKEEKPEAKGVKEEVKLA

Compound	inhibition [%]
O=C(NO)c1ccc(CCCN2CCC(CN[C@H]3C[C@@H]3c3ccc(F)cc3)CC2)cc1 (racemic)	12.7
O=C(NO)c1ccc(CCCN2CCC(CN[C@H]3C[C@@H]3c3ccc(-c4ccc(Cl)cc4)cc3)CC2)cc1 (racemic)	23.6
O=C(NO)c1ccc(CCCN2CCC(CN[C@H]3C[C@@H]3c3ccc(-c4ccc(F)cc4)cc3)CC2)cc1 (racemic)	9.74
O=C(NO)c1ccc(CCCN2CCC(CN[C@H]3C[C@@H]3c3ccc(C(=O)N4CCCCC4)cc3)CC2)cc1 (racemic)	53.9
O=C(NO)c1ccc(CCCN2CCC(CN[C@H]3C[C@@H]3c3ccc(-c4ccc(C(F)(F)F)nc4)cc3)CC2)cc1 (racemic)	33.5
Cn1ccc(-c2ccc([C@H]3C[C@@H]3NCC3CCN(CCCc4ccc(C(=O)NO)cc4)CC3)cc2)cc1=O (racemic)	59.4

More lines, now with the values ahead:

inhibition [%]	Compound
2.06	O=C(NO)c1ccc(CCCN2CCC(CN[C@H]3C[C@@H]3c3ccccc3)CC2)cc1
8.37	CN(CC1CCN(CCCc2ccc(C(=O)NO)cc2)CC1)[C@H]1C[C@@H]1c1ccccc1 (racemic)
6.85	O=C(NO)c1coc(CCCN2CCC(CN[C@H]3C[C@@H]3c3ccccc3)CC2)n1 (racemic)
12.9	O=C(NO)c1ccc(CN2CCC(CN[C@H]3C[C@@H]3c3ccccc3)CC2)cc1 (racemic)
10.7	O=C(NO)c1cnc(CCCN2CCC(CN[C@H]3C[C@@H]3c3ccccc3)CC2)s1 (racemic)
8.36	O=C(O)c1ccc(CCCN2CCC(CN[C@H]3C[C@@H]3c3ccccc3)CC2)cc1 (racemic)
18.4	O=C(NO)c1ccc(CCCN2CCC(CN[C@H]3C[C@@H]3c3ccccc3)CC2)cc1 (racemic)

molecular target: T3, Lysine-specific histone demethylase 1A; test: Inhibition of LSD1 in human MM1.S cells assessed as modulation of c-Myc mRNA expression at 0.5 uM after 6 to 24 hrs by qRT-PCR analysis; format: cell-based; conditions: time lower 6.0 hrs, time upper […]

Compound	inhibition
O=C(NO)c1ccc(CCCN2CCC(CN[C@H]3C[C@@H]3c3ccccc3)CC2)cc1 (racemic)	Active

molecular target: T3, Lysine-specific histone demethylase 1A; test: Inhibition of LSD1 in human MM1.S cells assessed as modulation of p21 mRNA expression at 0.5 uM after 6 to 24 hrs by qRT-PCR analysis; format: cell-based; conditions: time lower 6.0 hrs, time upper […]

Compound	inhibition
O=C(NO)c1ccc(CCCN2CCC(CN[C@H]3C[C@@H]3c3ccccc3)CC2)cc1 (racemic)	Active

molecular target: T3, Lysine-specific histone demethylase 1A; test: Inhibition of LSD1 in human MM1.S cells assessed as modulation alpha-tubulin acetylation at 100 to 500 nM after 1 to 3 hrs by Western blot analysis; format: cell-based; conditions: dose 100-500 nM, time 1-3 hrs

Compound	inhibition
O=C(NO)c1ccc(CCCN2CCC(CN[C@H]3C[C@@H]3c3ccccc3)CC2)cc1 (racemic)	Active

test system: MM1.S; test: Antiproliferative activity against human MM1.S cells assessed as reduction in cell viability after 144 hrs; format: functional, cell-based; conditions: not given

Compound	EC50 [nM]
CN(CC1CCN(CCCc2ccc(C(=O)NO)cc2)CC1)[C@H]1C[C@@H]1c1ccccc1 (racemic)	48
O=C(NO)c1coc(CCCN2CCC(CN[C@H]3C[C@@H]3c3ccccc3)CC2)n1 (racemic)	> 10000
O=C(NO)c1cnc(CCCN2CCC(CN[C@H]3C[C@@H]3c3ccccc3)CC2)s1 (racemic)	63
O=C(O)c1ccc(CCCN2CCC(CN[C@H]3C[C@@H]3c3ccccc3)CC2)cc1 (racemic)	> 10000
O=C(CCCCCCNC(=O)c1cnc(N(c2ccccc2)c2ccccc2)nc1)NO [RICOLINOSTAT]	0.85

Source: ChEMBL document CHEMBL4715885, “Novel dual LSD1/HDAC6 inhibitors for the treatment of multiple myeloma” (Bioorg Med Chem Lett, 2021)
